Experimental data as given in patent US12692509B2, “Methods for generating new genes in organism and use thereof” (Qingdao Kingagroot Chemical Compound Co., Ltd., priority 2019, dated 2026).

Experiments:
[1] = system: QY2234/H5-851 T1 seedlings; assay: Herbicide resistance test of T1 generation seedlings, spraying: PPO1 inversion line; type: in vivo, rice; details: 5 days after application
Procedure: (§1) The herbicide resistance test was performed on the T1 generation of the QY2234/H5-851 PPO1 inversion lines at seedling stage. The wild-type Huaidao No. 5 was used as a control, and planted simultaneously with the T1 generation seeds of the inversion lines. When the seedlings reached a plant height of 15 cm, 2081 was applied by spraying at four levels of 0.3, 0.6, 0.9 and 1.2 g a.i./mu. The culture conditions were 28° C., with 16 hours of light and 8 hours of darkness.

wild-type Huaidao No. 5 [2] = assay: PPO inhibitory herbicide resistance test, T0 generation, spray application: wild-type control; type: in vivo, rice; details: 0.18, 0.4 and 0.6 g ai/mu
Text: (§2) Transformation seedlings of QY2234 T0 generation identified as inversion event-positive were transplanted into large plastic buckets in the greenhouse to grow seeds of T1 generation. There were a large number of positive seedlings, so some T0 seedlings and wild-type control lines with similar growth period and status were selected. When the plant height reached about 20 cm, the herbicide resistance test was directly carried out. The herbicide used was a high-efficiency PPO inhibitory herbicide [drawing 1] produced by the company (code 2081, see […] Patent Application for Invention No. 202010281666.4). In this experiment, the herbicide was applied at the gradients of three levels, namely 0.18, 0.4, and 0.6 g ai/mu, by a walk-in type spray tower.

[3] = system: QY2234 T0 generation PPO1 inversion strain; assay: PPO inhibitory herbicide resistance test, T0 generation, spray application: PPO1 inversion lines; type: in vivo, rice
Text: as §2

wild-type Huaidao No. 5 [4] = assay: Herbicide resistance test of T1 generation seedlings, spraying: wild-type control; type: in vivo, rice; details: 5 days after application
Procedure: as §1

[5] = system: Plants containing the new EPSPS gene; assay: Herbicide bioassay on plants containing the new EPSPS gene; type: in vivo; details: rice plants from Agrobacterium-transformed calli
Text: These vectors were transferred into Agrobacterium for transforming calli of rice. Plants containing the new EPSPS gene were obtained.

wild-type Jinjing 818 [6] = assay: Herbicide resistance test, T0 generation, spray application: wild-type control; type: in vivo, rice; details: 2, 4, 8 and 32 g a.i./mu
Procedure: (§3) The transformation seedlings of T0 generation identified as doubling event positive were transplanted into large plastic buckets in the greenhouse for expanding propagation to obtain seeds of T1 generation. After the seedlings began to tiller, the tillers were taken from vigorously growing strains, and planted in the same pots with the tillers of the wild-type control varieties at the same growth period. After the plant height reached about 20 cm, the herbicide resistance test was conducted. The herbicide used was Shuangzuocaotong (CAS No. 1622908-18-2) produced by our company, and its field dosage was usually 4 grams of active ingredients per mu (4 g a.i./mu). In this experiment, Shuangzuocaotong was applied at a dosage gradient of 2 g a.i./mu, 4 g a.i./mu, 8 g a.i./mu and 32 g a.i./muwith a walk-in spray tower.

[7] = system: QY2091 T0 generation HPPD gene doubling strain; assay: Herbicide resistance test, T0 generation, spray application: HPPD doubling strains; type: in vivo, rice; details: for phenotype of HPPD doubling event strains after application: 2, 4, 8 and 32 g a.i./mu
Procedure: as §3

wild-type Jinjing 818 [8] = assay: Herbicide resistance test at seedling stage, germination on 1/2 MS medium with herbicide: wild-type control; type: in vivo, rice; details: 1.2 μM in 1/2 MS medium, 10 days of cultivation in light
Procedure: (§4) The herbicide resistance of the T1 generation of the QY2091 HPPD doubled strain was tested at the seedling stage. After the T1 generation seeds were subjected to surface disinfection, they germinated on ½ MS medium containing 1.2 μM Shuangzuocaotong, and cultivated at 28° C., 16 hours light/8 hours dark, in which wild-type Jinjing 818 was used as a control.

[9] = system: T1 generation of the QY2091 HPPD doubled strain; assay: Herbicide resistance test at seedling stage, germination on 1/2 MS medium with herbicide: T1 of HPPD doubled strain; type: in vivo, rice; details: 1.2 μM in 1/2 MS medium, 10 days; lines QY2091-7, 13, 20, 22
Procedure: as §4

[10] = T0 generation, versus wild type

Structure (SMILES): COC(=O)[C@@H](C)O/N=C/c1cc(-n2c(=O)cc(C(F)(F)F)n(C)c2=O)c(F)cc1Cl [compound 2081]
- phytotoxicity on QY2234/H5-851 T1 seedlings ([1]; 0.3 g a.i./mu): maintain normal growth
- phytotoxicity on QY2234/H5-851 T1 seedlings ([1]; 0.6 and 0.9 g ai/mu): most T1 seedlings could keep green and continue to grow
- phytotoxicity on QY2234/H5-851 T1 seedlings ([1]; 1.2 g a.i./mu): some of the T1 seedlings could keep green and continue to grow
- phenotype of wild-type control rice seedlings after application (wild-type Huaidao No. 5 [2]; 3-5 days after application): began to wither from tip of leaf, necrotic spots appeared on the leaves, and the plants gradually withered
- phenotype of wild-type rice seedlings after application (wild-type Huaidao No. 5 [2]; two weeks after application): died
- phenotype of most lines of the PPO1 inversion event after application ([3]; 3-5 days after application, 0.18, 0.4 and 0.6 g ai/mu): maintained normal growth, the leaves had no obvious phytotoxicity
- tolerance of PPO1 inversion lines to the herbicide [3, 10]: significantly improve the tolerance
- phenotype of most inversion event strains after application ([3]; two weeks after application, 0.18, 0.4 and 0.6 g ai/mu): continued to remain green and grew normally
- phytotoxicity on wild-type control rice seedlings (wild-type Huaidao No. 5 [4]; 0.3 g a.i./mu): obvious phytotoxicity
- phytotoxicity on wild-type control (wild-type Huaidao No. 5 [4]; 0.6 and 0.9 g ai/mu): substantially died off
- phytotoxicity on wild-type control rice seedlings (wild-type Huaidao No. 5 [4]; 0.6 g a.i./mu): the plants died quickly
- phytotoxicity on wild-type control plants (wild-type Huaidao No. 5 [4]; 1.2 g a.i./mu): all dead

Structure (SMILES): O=C(O)CNCP(=O)(O)O [glyphosate]
- resistance of plants containing the new EPSPS gene to the herbicide [5]: obvious resistance

Structure (SMILES): Cc1nn(C)cc1C(=O)Oc1c(C(=O)c2ccc(C(F)(F)F)cc2S(C)(=O)=O)c(C)nn1C [Shuangzuocaotong]
- phenotype of wild-type rice seedlings after application (wild-type Jinjing 818 [6]; 4 weeks after application): close to death
- phenotype of wild-type control rice seedlings after application (wild-type Jinjing 818 [6]; 5-7 days after application, spray tower): began to show albino
- phenotype of HPPD doubling event strains after application ([7]; 4 weeks after application): all continued to remain green and grew normally
- phenotype of HPPD doubling event strains after application ([7]; 5-7 days after application): all remained normally green
- tolerance of HPPD gene-doubled strains to the herbicide [7, 10]: significantly improved tolerance
- resistance of plants to the HPPD inhibitory herbicide ([7]; T0 transformed seedlings, field dosage 4 g a.i./mu): up to 8 times the field dose
- phenotype of wild-type control rice seedlings (wild-type Jinjing 818 [8]): almost all albino
- phenotype of green T1 seedlings of HPPD doubling lines [9]: continued to remain green and grew normally
